Test results published in paper PMC11233931, “Remodeling tumor‐associated macrophage for anti‐cancer effects by rational design of irreversible inhibition of mitogen‐activated protein kinase‐activated protein kinase 2” (MedComm, 2024).

Experiments:
Assay in all cases: Eurofins kinase selectivity profile against 380 other human recombinant kinases (Table S2)
Format in all cases: biochemical
[1] = target: T1, 380 human recombinant protein kinases (Homo sapiens, UniProt P80192); settings: MLK1(h), read-out: Inhibition rate
T1 construct: purchased Eurofins (Celle Lévescault)
Summary of the method: (§1)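 Selectivity panel of 380 human recombinant protein kinases, screened by Eurofins at a range of concentrations.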

[2] = target: T2, 380 human recombinant protein kinases (Homo sapiens, UniProt Q04912); settings: Ron(h), read-out: Inhibition rate
T2 construct: purchased Eurofins (Celle Lévescault)
Summary of the method: as §1

[3] = target: T3, 380 human recombinant protein kinases (Homo sapiens, UniProt Q8WU08); settings: STK32A(h), read-out: Inhibition rate (%)
T3 construct: purchased Eurofins (Celle Lévescault)
Summary of the method: as §1

[4] = target: T4, 380 human recombinant protein kinases (Homo sapiens, UniProt P48426); settings: PIP4K2α(h), read-out: Inhibition rate (%)
T4 construct: purchased Eurofins (Celle Lévescault)
T4 sequence (P48426 1-406): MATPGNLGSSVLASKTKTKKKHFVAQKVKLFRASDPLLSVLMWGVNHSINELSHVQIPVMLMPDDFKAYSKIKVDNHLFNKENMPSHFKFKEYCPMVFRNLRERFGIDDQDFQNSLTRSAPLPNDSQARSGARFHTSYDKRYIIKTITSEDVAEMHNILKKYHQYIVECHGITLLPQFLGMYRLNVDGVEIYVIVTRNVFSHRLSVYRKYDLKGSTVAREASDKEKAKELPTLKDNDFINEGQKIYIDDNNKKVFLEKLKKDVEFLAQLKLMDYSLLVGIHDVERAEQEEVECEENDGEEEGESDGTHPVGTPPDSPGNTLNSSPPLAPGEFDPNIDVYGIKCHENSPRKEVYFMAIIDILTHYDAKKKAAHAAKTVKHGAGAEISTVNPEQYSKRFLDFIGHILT
Summary of the method: as §1

[5] = target: T5, 380 human recombinant protein kinases (Homo sapiens, UniProt Q96RR4); settings: CaMKK2(h), read-out: Inhibition rate
T5 construct: purchased Eurofins (Celle Lévescault)
Summary of the method: as §1

[6] = target: T6, 380 human recombinant protein kinases (Homo sapiens, UniProt Q9Y2K2); settings: SIK3(h), read-out: Inhibition rate (%)
T6 construct: purchased Eurofins (Celle Lévescault)
Summary of the method: as §1

[7] = target: T7, 380 human recombinant protein kinases (Homo sapiens, UniProt P15056); settings: B-Raf(h), read-out: Inhibition rate
T7 construct: purchased Eurofins (Celle Lévescault)
Summary of the method: as §1

[8] = target: T8, 380 human recombinant protein kinases (Homo sapiens, UniProt Q9NYY3); settings: Snk(h), read-out: Inhibition rate (%)
T8 construct: purchased Eurofins (Celle Lévescault)
Summary of the method: as §1

[9] = target: T9, 380 human recombinant protein kinases (Homo sapiens, UniProt Q9P0L2); settings: MARK1(h), read-out: Inhibition rate
T9 construct: purchased Eurofins (Celle Lévescault)
Summary of the method: as §1

[10] = target: T10, 380 human recombinant protein kinases (Homo sapiens, UniProt P35916); settings: Flt4(h), read-out: Inhibition rate
T10 construct: purchased Eurofins (Celle Lévescault)
Summary of the method: as §1

[11] = target: T11, 380 human recombinant protein kinases (Homo sapiens, UniProt P46734); settings: MKK3(h), read-out: Inhibition rate
T11 construct: purchased Eurofins (Celle Lévescault)
T11 sequence (P46734 1-347): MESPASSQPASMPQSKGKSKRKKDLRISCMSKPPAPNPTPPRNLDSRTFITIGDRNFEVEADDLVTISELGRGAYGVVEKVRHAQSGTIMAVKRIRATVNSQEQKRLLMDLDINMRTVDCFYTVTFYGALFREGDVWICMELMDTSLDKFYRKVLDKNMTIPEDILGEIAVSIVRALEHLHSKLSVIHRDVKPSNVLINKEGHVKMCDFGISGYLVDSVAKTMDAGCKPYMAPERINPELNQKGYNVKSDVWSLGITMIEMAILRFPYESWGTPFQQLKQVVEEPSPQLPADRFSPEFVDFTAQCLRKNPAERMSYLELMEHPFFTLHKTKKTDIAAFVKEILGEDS
Summary of the method: as §1

[12] = target: T12, 380 human recombinant protein kinases (Homo sapiens, UniProt P42685); settings: PTK5(h), read-out: Inhibition rate
T12 construct: purchased Eurofins (Celle Lévescault)
Summary of the method: as §1

T7 sequence (P15056 whole entry): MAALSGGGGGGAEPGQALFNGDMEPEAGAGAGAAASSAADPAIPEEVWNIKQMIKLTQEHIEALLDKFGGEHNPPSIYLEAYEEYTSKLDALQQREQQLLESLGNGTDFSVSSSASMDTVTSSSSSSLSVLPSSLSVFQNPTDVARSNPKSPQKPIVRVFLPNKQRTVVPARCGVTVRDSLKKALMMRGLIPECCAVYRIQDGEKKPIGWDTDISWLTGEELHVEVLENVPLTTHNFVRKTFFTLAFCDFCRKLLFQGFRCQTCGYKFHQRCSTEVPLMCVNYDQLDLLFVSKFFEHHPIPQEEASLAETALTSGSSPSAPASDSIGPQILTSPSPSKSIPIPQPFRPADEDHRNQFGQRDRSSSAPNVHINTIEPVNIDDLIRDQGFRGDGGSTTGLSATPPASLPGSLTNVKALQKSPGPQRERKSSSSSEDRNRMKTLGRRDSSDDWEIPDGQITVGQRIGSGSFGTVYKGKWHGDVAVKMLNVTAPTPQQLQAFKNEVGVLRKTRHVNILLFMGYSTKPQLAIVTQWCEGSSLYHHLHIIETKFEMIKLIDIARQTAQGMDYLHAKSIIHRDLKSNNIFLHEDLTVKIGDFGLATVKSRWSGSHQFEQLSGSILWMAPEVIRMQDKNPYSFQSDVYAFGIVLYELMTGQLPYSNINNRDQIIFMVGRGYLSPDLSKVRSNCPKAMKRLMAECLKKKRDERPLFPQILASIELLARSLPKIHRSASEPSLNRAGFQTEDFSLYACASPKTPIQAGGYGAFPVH
T6 sequence (Q9Y2K2 whole entry): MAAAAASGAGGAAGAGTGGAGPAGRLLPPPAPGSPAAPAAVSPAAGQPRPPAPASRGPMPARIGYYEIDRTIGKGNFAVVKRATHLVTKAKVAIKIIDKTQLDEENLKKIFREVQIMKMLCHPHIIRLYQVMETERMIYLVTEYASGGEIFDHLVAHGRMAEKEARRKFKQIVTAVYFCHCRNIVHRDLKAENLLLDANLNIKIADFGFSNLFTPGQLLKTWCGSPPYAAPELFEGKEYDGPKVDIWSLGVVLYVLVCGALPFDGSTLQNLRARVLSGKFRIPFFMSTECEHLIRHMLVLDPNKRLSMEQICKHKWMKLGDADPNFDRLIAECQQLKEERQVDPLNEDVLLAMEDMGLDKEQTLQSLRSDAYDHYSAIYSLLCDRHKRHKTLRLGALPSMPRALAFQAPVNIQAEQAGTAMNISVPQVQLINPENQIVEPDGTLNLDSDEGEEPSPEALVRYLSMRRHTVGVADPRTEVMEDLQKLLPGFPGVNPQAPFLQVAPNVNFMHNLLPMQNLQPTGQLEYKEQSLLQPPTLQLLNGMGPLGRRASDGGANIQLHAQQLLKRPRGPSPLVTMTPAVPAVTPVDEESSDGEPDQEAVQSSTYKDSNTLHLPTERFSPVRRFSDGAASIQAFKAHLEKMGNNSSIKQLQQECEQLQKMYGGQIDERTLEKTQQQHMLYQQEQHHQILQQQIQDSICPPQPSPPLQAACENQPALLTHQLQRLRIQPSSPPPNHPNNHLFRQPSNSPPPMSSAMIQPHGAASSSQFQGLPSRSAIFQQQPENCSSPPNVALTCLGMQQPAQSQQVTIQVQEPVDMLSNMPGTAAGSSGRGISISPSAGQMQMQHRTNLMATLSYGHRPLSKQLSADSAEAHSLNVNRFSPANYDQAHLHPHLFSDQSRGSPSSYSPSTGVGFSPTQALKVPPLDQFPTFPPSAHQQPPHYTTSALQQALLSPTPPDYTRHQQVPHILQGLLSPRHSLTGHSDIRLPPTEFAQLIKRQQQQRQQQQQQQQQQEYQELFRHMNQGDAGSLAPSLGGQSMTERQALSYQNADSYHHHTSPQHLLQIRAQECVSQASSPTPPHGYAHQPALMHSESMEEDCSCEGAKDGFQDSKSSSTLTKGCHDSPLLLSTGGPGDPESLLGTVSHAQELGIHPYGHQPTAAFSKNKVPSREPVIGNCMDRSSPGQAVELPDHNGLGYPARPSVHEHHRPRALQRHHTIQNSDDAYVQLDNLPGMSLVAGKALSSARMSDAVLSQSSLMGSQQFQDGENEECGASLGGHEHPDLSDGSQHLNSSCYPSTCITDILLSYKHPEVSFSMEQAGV
T9 sequence (Q9P0L2 whole entry): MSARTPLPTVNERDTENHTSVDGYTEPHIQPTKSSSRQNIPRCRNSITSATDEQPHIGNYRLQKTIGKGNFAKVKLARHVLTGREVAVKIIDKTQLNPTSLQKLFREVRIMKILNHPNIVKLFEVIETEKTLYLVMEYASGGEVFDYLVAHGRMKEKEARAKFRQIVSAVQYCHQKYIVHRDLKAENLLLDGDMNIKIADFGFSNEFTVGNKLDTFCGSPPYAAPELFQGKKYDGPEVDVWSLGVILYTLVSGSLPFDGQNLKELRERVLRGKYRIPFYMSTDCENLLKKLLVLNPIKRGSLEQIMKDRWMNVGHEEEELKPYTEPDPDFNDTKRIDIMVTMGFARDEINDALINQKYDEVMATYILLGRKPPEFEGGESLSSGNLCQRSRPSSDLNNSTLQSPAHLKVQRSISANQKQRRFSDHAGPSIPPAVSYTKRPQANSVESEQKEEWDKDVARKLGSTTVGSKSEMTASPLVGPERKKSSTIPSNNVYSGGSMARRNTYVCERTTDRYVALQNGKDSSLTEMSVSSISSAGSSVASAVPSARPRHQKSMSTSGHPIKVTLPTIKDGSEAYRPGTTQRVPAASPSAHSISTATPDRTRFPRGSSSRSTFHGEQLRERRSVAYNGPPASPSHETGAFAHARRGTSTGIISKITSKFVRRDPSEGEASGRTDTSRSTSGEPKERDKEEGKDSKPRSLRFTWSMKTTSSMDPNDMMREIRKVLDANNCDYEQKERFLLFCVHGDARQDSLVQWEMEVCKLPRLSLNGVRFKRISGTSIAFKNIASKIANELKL
T10 sequence (P35916 25-1363): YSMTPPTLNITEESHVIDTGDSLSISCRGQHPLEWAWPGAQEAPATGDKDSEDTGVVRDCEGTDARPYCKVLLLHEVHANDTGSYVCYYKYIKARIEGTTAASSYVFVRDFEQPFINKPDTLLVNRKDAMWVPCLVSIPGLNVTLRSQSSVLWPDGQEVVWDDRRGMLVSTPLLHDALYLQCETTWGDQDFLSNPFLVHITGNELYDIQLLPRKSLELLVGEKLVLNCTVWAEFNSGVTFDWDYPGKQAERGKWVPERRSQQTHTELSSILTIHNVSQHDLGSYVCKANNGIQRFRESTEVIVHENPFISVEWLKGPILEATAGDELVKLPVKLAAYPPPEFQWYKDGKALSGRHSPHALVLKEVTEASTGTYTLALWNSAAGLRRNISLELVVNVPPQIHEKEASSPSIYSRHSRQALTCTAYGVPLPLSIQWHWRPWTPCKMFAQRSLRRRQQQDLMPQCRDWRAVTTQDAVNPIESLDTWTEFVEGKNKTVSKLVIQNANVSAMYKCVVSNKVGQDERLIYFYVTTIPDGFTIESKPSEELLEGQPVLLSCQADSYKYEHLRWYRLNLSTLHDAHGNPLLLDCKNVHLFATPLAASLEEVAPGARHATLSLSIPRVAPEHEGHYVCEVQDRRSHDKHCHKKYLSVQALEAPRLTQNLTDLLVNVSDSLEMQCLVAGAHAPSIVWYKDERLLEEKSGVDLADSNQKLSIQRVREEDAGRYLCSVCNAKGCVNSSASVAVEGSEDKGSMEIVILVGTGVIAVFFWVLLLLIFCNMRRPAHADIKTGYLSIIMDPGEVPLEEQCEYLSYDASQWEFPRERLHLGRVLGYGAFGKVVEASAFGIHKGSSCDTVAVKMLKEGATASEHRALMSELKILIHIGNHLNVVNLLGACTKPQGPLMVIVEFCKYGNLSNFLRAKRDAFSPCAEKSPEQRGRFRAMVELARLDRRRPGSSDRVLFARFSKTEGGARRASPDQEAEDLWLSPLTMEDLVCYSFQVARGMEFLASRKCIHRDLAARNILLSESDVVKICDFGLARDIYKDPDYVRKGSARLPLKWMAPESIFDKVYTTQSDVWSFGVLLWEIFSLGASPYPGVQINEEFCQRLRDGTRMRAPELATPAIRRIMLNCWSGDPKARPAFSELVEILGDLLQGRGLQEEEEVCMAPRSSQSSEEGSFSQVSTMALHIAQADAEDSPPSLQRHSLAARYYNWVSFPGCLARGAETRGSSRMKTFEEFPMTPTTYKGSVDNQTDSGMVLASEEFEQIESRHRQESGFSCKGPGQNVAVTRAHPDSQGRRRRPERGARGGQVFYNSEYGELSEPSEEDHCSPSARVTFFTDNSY
T12 sequence (P42685 whole entry): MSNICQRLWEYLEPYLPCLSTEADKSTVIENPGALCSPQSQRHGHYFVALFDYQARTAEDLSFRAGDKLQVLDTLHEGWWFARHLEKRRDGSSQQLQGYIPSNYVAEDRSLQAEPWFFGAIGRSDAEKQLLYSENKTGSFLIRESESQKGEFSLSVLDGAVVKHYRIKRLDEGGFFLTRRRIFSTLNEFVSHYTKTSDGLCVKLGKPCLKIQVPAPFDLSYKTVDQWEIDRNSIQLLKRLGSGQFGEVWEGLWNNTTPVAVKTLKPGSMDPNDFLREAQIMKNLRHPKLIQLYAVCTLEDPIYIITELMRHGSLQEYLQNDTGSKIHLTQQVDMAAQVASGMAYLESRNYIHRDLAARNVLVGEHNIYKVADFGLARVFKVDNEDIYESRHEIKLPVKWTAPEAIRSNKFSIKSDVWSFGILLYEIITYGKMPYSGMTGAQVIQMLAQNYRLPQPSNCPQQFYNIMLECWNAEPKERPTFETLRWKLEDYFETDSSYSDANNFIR

Work on C=CC(=O)Nc1cc(-c2cc(-c3cc4c([nH]3)CCNC4=O)ccn2)ccc1OC(F)(F)F [compound 11] yielded an inhibition at 0.01 µM ([1]; 10 nM) of -3%, an inhibition at 0.1 µM ([1]; 100 nM) of 0% and an inhibition at 1 µM ([1]; 1000 nM) of 10%. The inhibition at 0.01 µM ([2]; 10 nM) was -4%, the inhibition at 0.1 µM ([2]; 100 nM) was 26% and the inhibition at 1 µM ([2]; 1000 nM) was 77%. It also gave an inhibition at 0.01 µM ([3]; 10 nM) of 3%, an inhibition at 0.1 µM ([3]; 100 nM) of 10% and an inhibition at 1 µM ([3]; 1000 nM) of 7%. It also gave an inhibition at 0.01 µM ([4]; 10 nM) of -1%, an inhibition at 0.1 µM ([4]; 100 nM) of -3% and an inhibition at 1 µM ([4]; 1000 nM) of -1%. For the same compound, the inhibition at 0.01 µM ([5]; 10 nM) was -9%, the inhibition at 0.1 µM ([5]; 100 nM) was -1% and the inhibition at 1 µM ([5]; 1000 nM) was 38%. For the same compound, the inhibition at 0.01 µM ([6]; 10 nM) was 6%, the inhibition at 0.1 µM ([6]; 100 nM) was 1% and the inhibition at 1 µM ([6]; 1000 nM) was 12%. For the same compound, the inhibition at 0.01 µM ([7]; 10 nM) was -7%, the inhibition at 0.1 µM ([7]; 100 nM) was -7% and the inhibition at 1 µM ([7]; 1000 nM) was 4%. For the same compound, the inhibition at 0.01 µM ([8]; 10 nM) was 0%, the inhibition at 0.1 µM ([8]; 100 nM) was 10% and the inhibition at 1 µM ([8]; 1000 nM) was 15%. For the same compound, the inhibition at 0.01 µM ([9]; 10 nM) was -1%, the inhibition at 0.1 µM ([9]; 100 nM) was -12% and the inhibition at 1 µM ([9]; 1000 nM) was -4%. For the same compound, the inhibition at 0.01 µM ([10]; 10 nM) was -8%, the inhibition at 0.1 µM ([10]; 100 nM) was 5% and the inhibition at 1 µM ([10]; 1000 nM) was 43%. For the same compound, the inhibition at 0.01 µM ([11]; 10 nM) was 6%, the inhibition at 0.1 µM ([11]; 100 nM) was -2% and the inhibition at 1 µM ([11]; 1000 nM) was -1%. It also gave an inhibition at 0.01 µM ([12]; 10 nM) of -7%, an inhibition at 0.1 µM ([12]; 100 nM) of 6% and an inhibition at 1 µM ([12]; 1000 nM) of 5%.
